Data set [1] concerns mtDNA production in human PBMCs.
In data set [2] the test system is HBVWT^C2. In words: Anti-HBV qPCR assay in HBV-exposed PXB-cells. To be noted: for IC50: Hepatitis B virus, read-out: IC50^qPCR_cell; for IC95^qPCR_sup / IC95^qPCR_cell: PXB-cells; for IC95^qPCR_sup: HBVWT^C2, HBV-DNA in culture medium blocked by 95%; for IC95^qPCR_cell: HBVWT^C2, intracellular HBV-DNA blocked by 95%. The data set is classed as cell-based, Hepatitis B virus. For orientation: Real-time PCR tracks product formation cycle by cycle.

The test system of data set [3] is HBVWT^D1. In words: microbe, parasite or virus in culture. The data set is classed as cell-based, Hepatitis B virus.
For data set [4], the system named is mtDNA production in PXB-cells.
A short description of data set [5]: Body weights and serum human albumin in treated PXB-mice. Type of data set: in vivo.
Data set [6] is described as follows: Cytotoxicity, LDH release assay, primary hepatocytes. To be noted: human.
Data set [7] in a line: Cytotoxicity, MTT assay, MT-2 cells. The data set is classed as cell-based. The following applies: human. On the technique in general: Formazan colour is commonly taken as a measure of viable cells.
The subject of a further data set is HIV-1LAI. In words: Anti-HIV assay. Type of data set: cell-based. To be noted: Human immunodeficiency virus 1, read-out: IC50^MTT.
The subject of data set [8] is HBVWT^D1. In words: microbe, parasite or virus in culture. The following applies: Hepatitis B virus, HepG2.2.15, read-out: IC50^qPCR_cell.
A short description of data set [9]: Intracellular concentration of compound in HepG2.2.15 cells. Type of data set: in vitro ADME, human. The following applies: 100 µM, 6 hours incubation.
Data set [10] in a line: Cytotoxicity, Neutral Red staining assay, primary hepatocytes. The following applies: human.
Data set [11] deals with MOT-4 cells and human primary peripheral blood mononuclear cells. In words: Cell proliferation assays in MOT-4 cells and human PBMCs. Type of data set: cell-based.
Data set [12] can be described thus: Cytotoxicity, MTT assay, Huh7 cells. Type of data set: cell-based. To be noted: human.
Data set [13] deals with HBVWT^D1. To be noted: high concentrations (100 and 1,000 nM), HepG2.2.15 cells.
Data set [14] in a line: Cytotoxicity, MTT assay, PXB-cells. The following applies: human. Type of data set: cell-based.
Data set [15] is described as follows: Cytotoxicity, MTT assay, HepG2 cells. To be noted: human. Type of data set: cell-based.
Data set [16] has as its system HBVWT^C2. In words: Antiviral effect in chronically HBVWT^C2-infected PXB-mice. Type of data set: in vivo. To be noted: for reduction of serum HBVWT^C2-DNA copies: day 21.
For data set [17], the system named is HBV. In words: Combination of E-CFCP with GLS4, HBV-DNA production by HepG2.2.15 cells. The data set is classed as cell-based, Hepatitis B virus.
A short description of data set [18]: Acid resistance: anti-HBV activity after pH 2 exposure. To be noted: pH 2, 5 and 60 minutes at 37 °C, then tested in HepG2.2.15 cells. Type of data set: physicochemical.
Data set [19] concerns HBV. To be noted: 90 mg/kg/day, 3-week administration, HBV-infected PXB-mice; cited from earlier work.
A short description of data set [20]: Intracellular concentrations of phosphorylated forms in HepG2.2.15 cells. The data set is classed as in vitro ADME, human.
[21] abbreviates: 10 µM, 6 days of culture without compound.

SMILES strings stand for the structures. Counter-ions that a name gives are not always drawn. Like-named read-outs stand apart in the source and are kept apart here. A value given as a limit tells only on which side of the number the result lay.

In the case of `C=C1C(n2cnc3c(=O)[nH]c(N)nc32)CC(O)C1(C#N)CO` (stereo not drawn) [CMCdG], the “inhibition of mtDNA production (in words)” value in [1] (human PBMCs and PXB-cells) is listed as “non-toxic”.

As for `N#C[C@]1(CO)/C(=C\F)[C@@H](n2cnc3c(=O)[nH]c(N)nc32)C[C@@H]1O` [E-CFCP], the IC50 in the data set with HBVWT^C2 [2] was found to be 10 pM; in the data set on HIV-1LAI, 0.205 ± 0.0238 µM; in the data set on HBVWT^D1 [8], 0.0018 µM. Moreover, the “IC95^qPCR_sup” value in the data set with HBVWT^C2 [2] was 0.0035 µM. Besides, in the data set on HBVWT^C2 [2], the “IC95^qPCR_cell” value was determined as 0.339 µM. Besides, the HBV-DNA synthesis blockade in the data set on HBVWT^D1 [3] (setting [21]) was 100%; in the data set on HBVWT^D1 [3] (10 µM, 16 days of culture without compound), above 80%. For the same compound, the “% inhibition of HBVWT^D1-DNA production” value in the data set on HBVWT^D1 [3] (10 µM, exposed 11 days, 14 days of culture without compound) was above 90%. Further, the “persistence of anti-HBV activity (>80% Inhibition) after compound removal” value in the data set with HBVWT^D1 [3] (HepG2.2.15 cells) is around 16 days. For the same compound, the Mitotox50 is listed as 29.6 µM in data set [4] (PXB-cells, mtDNA production) and 38.2 µM in data set [1] (human PBMCs, mtDNA production). Also, the “changes in body weights or serum human albumin levels” value in data set [5] (0.2 mg/kg/day for 2 weeks, HBVWT^C2-infected PXB-mice) is listed as “No significant changes”. Moreover, in [5] (once daily 0.2 mg/kg/day, E-CFCP-receiving vs ETV-receiving mice), the “changes of body weights and human serum albumin over 8 weeks” value was “no significant changes”. The CC50 in [6] (primary hepatocytes) is above 100 µM; in [7] (MT-2 cells), 306 µM; in data set [10] (primary hepatocytes) it was above 100 µM; in data set [12] (Huh7 cells), above 500 µM; in data set [14] (PXB-cells), above 500 µM; in data set [15] (HepG2 cells), 115 µM. Further, the intracellular concentration entry in data set [9] is recorded as “approximately 200 pmol/2×10^6 cells”. Also, in data set [11], the “cell proliferation safety profile (in words)” value is reported as “highly favorable safety profiles”. Further, the “inhibition of HBV-DNA production” value in the data set with HBVWT^D1 [13] stood at 100%. The results for the “reduction of serum HBVWT^C2-DNA copies” value in the data set on HBVWT^C2 [16] (0.02 mg/kg/day for two weeks) and with HBVWT^C2 [16] (0.2 mg/kg/day for two weeks) were 2.2±0.06 log and 2.6±0.1 log, respectively. The “persistence of reduction after administration cessation” value in the data set on HBVWT^C2 [16] (0.2 mg/kg/day) is reported as at least 3 weeks. Besides, the “persistence of reduction following treatment cessation” value in the data set with HBVWT^C2 [16] (PXB-mice, 0.02∼0.2 mg/kg/day) is 1–3 weeks. The “reduction of HBVWT^C2-viremia” value in the data set with HBVWT^C2 [16] (once-daily peroral, 2 weeks, 0.02∼0.2 mg/kg/day) is recorded as 2–3 logs. The “combination effect with GLS4 (Chou-Talalay Method)” value with HBV [17] (1 and 10 nM E-CFCP with GLS4 at the same concentration) is given as “synergism was observed”; in the data set with HBV [17] (100 and 1,000 nM E-CFCP with GLS4 at the same concentration), “no synergism was detected”. Moreover, in data set [18], the “anti-HBV activity after pH 2 exposure” value is “comparable to pH 2-unexposed E-CFCP”.

`C=C1[C@H](CO)[C@@H](O)C[C@@H]1n1cnc2c(=O)[nH]c(N)nc21` [ETV, entecavir]: in the data set on HBVWT^C2 [2], the IC50 was 130 pM, the “IC95^qPCR_sup” value turned out to be 0.079 µM and the “IC95^qPCR_cell” value was 0.859 µM. The same compound gave an HBV-DNA synthesis blockade in the data set with HBVWT^D1 [3] (setting [21]) below 80%. This compound also yielded a Mitotox50 in data set [4] (human) of 35.2 µM. The compound further showed a Mitotox50 in data set [1] (human) of 40.4 µM. For the same compound, the “inhibition of HBV-DNA production” value in the data set on HBVWT^D1 [13] is reported as below 100%. Besides, the “reduction of serum HBVWT^C2-DNA copy numbers” value in the data set with HBVWT^C2 [16] (0.02 mg/kg/day, two weeks, at conclusion of administration (day 14)) is reported as 2.0±0.07 log.

As for `CC(C)OC(=O)[C@H](C)N[P@](=O)(CO[C@H](C)Cn1cnc2c(N)ncnc21)Oc1ccccc1` [TAF, tenofovir alafenamide, reference compound], in the data set on HBVWT^C2 [2], the IC50 amounted to 590 pM. Also, in the data set with HBVWT^C2 [2], the “IC95^qPCR_sup” value amounted to 0.09 µM. In addition, the “IC95^qPCR_cell” value in the data set on HBVWT^C2 [2] turned out to be 0.513 µM. Further, the inhibition at 1 µM in the data set with HBVWT^D1 [3] (Hepatitis B virus, HepG2.2.15, read-out: HBV-DNA production inhibition) stood at 90%. The CC50 was 97 µM in [6]; 21 µM in [7]; 26 µM in data set [10]; 34 µM in data set [12]; 8.2 µM in data set [14]; 22 µM in data set [15]. In addition, the “inhibition of HBV-DNA production” value with HBVWT^D1 [13] was below 100%.

Consider `CC(C)OC(=O)OCOP(=O)(CO[C@H](C)Cn1cnc2c(N)ncnc21)OCOC(=O)OC(C)C` [TDF, tenofovir disoproxil fumarate], for which the viral load reduction entry with HBV [19] was “approximately 1.5 logs”.

Turning to `C[C@@H](Cn1cnc2c(N)ncnc21)OCP(=O)(O)OP(=O)(O)OP(=O)(O)O` [TFV-DP], the “intracellular phosphorylated form (in words)” value in data set [20] is “not detected by day 3 and beyond”.

Turning to `N#C[C@]1(CO)/C(=C/F)[C@@H](n2cnc3c(=O)[nH]c(N)nc32)C[C@@H]1O` [Z-CFCP], in the data set on HBVWT^D1 [8], the IC50 came to 0.414 µM.

Consider `Nc1ccn([C@H]2CC[C@@H](CO)O2)c(=O)n1` [zalcitabine/ddC, zalcitabine], for which, in data set [1], the “inhibition of mtDNA production (in words)” value was “strongly blocked mtDNA production”.

For orientation: IC50 means the concentration that gives 50% inhibition. Broadly, the CC50 is the concentration at which the toxic effect on the cells reaches its halfway point. Higher therefore signals lower toxicity to the cells. As usually defined, the inhibition is the share of the control response that was lost under treatment.

(Values after PMC9703152 (Journal of hepatology, 2020).)
